Assay results taken from ChEMBL document CHEMBL6134916, “Novel Substituted Cyclic Compounds as SLC6A19 Inhibitors for Treating Phenylketonuria and Other Amino Acidurias” (ACS Med Chem Lett, 2025).

biological target: T1, Sodium-dependent neutral amino acid transporter B(0)AT1 (Homo sapiens, UniProt Q695T7); experiment: Inhibition of human SLC6A19 expressed in MDCK cells co-expressing human TMEM27 using 13C6/15N-L-Isoleucine as substrate preincubated for 20 mins followed by substrate addition and measured after 20 mins by stable isotope uptake assay; format: cell-based
T1 sequence (Q695T7 whole entry): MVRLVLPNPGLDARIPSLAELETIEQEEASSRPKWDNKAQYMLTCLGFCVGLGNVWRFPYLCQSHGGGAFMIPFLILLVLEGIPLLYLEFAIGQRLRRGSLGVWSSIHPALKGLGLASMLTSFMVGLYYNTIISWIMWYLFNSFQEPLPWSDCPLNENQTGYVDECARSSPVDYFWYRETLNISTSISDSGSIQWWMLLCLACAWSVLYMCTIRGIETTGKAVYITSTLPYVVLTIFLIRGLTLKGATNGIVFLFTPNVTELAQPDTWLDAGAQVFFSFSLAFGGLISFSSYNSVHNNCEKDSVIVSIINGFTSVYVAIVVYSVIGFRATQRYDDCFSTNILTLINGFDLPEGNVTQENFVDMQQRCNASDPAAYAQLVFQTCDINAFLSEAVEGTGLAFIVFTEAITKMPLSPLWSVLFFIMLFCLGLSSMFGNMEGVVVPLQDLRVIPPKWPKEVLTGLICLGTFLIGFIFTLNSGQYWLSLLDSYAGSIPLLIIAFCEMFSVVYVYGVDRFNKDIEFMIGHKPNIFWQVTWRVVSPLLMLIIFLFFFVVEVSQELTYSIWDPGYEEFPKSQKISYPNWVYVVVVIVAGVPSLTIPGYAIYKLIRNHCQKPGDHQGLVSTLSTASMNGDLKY

IC50	SMILES
5 nM	CNC(=O)c1cc2c(-c3ccc(C(=O)NCc4cccc(C(F)(F)F)c4)cc3)cc(C(C)C)cc2[nH]1
5 nM	CNC(=O)c1cc2c(-c3ccc(C(=O)NCc4cccc(C(F)(F)F)c4)cc3)cc(C)c(F)c2[nH]1
4 nM	CNC(=O)c1cc2c(-c3ccc(C(=O)NCc4cccc(C(F)(F)F)c4)cc3)ccc(F)c2[nH]1
4 nM	CNC(=O)c1cc2c(-c3ccc(C(=O)NCc4cc(C(F)(F)F)ccc4F)cc3F)cccc2[nH]1
3 nM	CNC(=O)c1cc2c(-c3ccc(C(=O)NCc4cccc(C(F)(F)F)c4)cc3Cl)cccc2[nH]1
5 nM	CNC(=O)c1cc2c(-c3ccc(C(=O)NCc4cccc(C(F)(F)F)c4)cc3)c(OC)ccc2[nH]1
